Laboratory results reported in ChEMBL document CHEMBL1201862, “PubChem BioAssay data set” (2004).
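Compound exposure: 48 hours, 5 concentrations, 96-well plates. GI50 marks 50% less growth.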 Calls of active or inactive are those of the source. No stated cut-off is given here; in the data, active = GI50 up to about 1.1 µM and inactive = higher.

Experiments:
Assay in all cases: NCI-60 cell line screen, 48 h
BT-549 = system: BT-549
SW-620 = system: SW-620
SK-OV-3 = system: SK-OV-3
OVCAR-3 = system: OVCAR-3
UACC-257 = system: UACC-257
Hs-578T = system: Hs-578T
SNB-75 = system: SNB-75
HCT-116 = system: HCT-116
SK-MEL-28 = system: SK-MEL-28
NCI-H522 = system: NCI-H522
HCT-15 = system: HCT-15
NCI-H226 = system: NCI-H226
NCI/ADR-RES = system: NCI/ADR-RES
PC-3 = system: PC-3
A549 = system: A549
NCI-H460 = system: NCI-H460
SNB-19 = system: SNB-19
CCRF-CEM = system: CCRF-CEM
SN12C = system: SN12C
NCI-H23 = system: NCI-H23

Cc1csc(-n2nc(C)cc2C)n1
GI50 (BT-549): > 100 µM (inactive)
GI50 (SW-620): > 100 µM (inactive)
GI50 (SK-OV-3): > 100 µM (inactive)
GI50 (OVCAR-3): > 100 µM (inactive)
GI50 (UACC-257): > 100 µM (inactive)
GI50 (Hs-578T): > 100 µM (inactive)
GI50 (SNB-75): > 100 µM (inactive)
GI50 (HCT-116): > 100 µM (inactive)
GI50 (SK-MEL-28): > 100 µM (inactive)
GI50 (NCI-H522): > 100 µM (inactive)
GI50 (HCT-15): > 100 µM
GI50 (NCI-H226): > 100 µM (inactive)
GI50 (NCI/ADR-RES): > 100 µM (inactive)
GI50 (PC-3): > 100 µM (inactive)
GI50 (A549): > 100 µM (inactive)
GI50 (NCI-H460): > 100 µM (inactive)
GI50 (SNB-19): > 100 µM (inactive)
GI50 (CCRF-CEM): > 100 µM (inactive)
GI50 (SN12C): > 100 µM (inactive)
GI50 (NCI-H23): > 100 µM (inactive)

O=C1CCCC2=C(N1)C(=O)C=CC2=O
GI50 (BT-549): 16.7 µM (inactive)
GI50 (SW-620): 23.1 µM (inactive)
GI50 (SK-OV-3): > 100 µM (inactive)
GI50 (OVCAR-3): 43.5 µM (inactive)
GI50 (UACC-257): 45.2 µM (inactive)
GI50 (Hs-578T): 29 µM (inactive)
GI50 (SNB-75): 43.8 µM (inactive)
GI50 (HCT-116): 33.7 µM (inactive)
GI50 (SK-MEL-28): 45.4 µM (inactive)
GI50 (NCI-H522): 13.6 µM (inactive)
GI50 (HCT-15): 42.2 µM
GI50 (NCI-H226): 11.1 µM (inactive)
GI50 (NCI/ADR-RES): 26.8 µM (inactive)
GI50 (PC-3): 16.1 µM (inactive)
GI50 (A549): > 63.1 µM (inactive)
GI50 (NCI-H460): 45.3 µM (inactive)
GI50 (SNB-19): 44.1 µM (inactive)
GI50 (CCRF-CEM): 10.6 µM (inactive)
GI50 (SN12C): 29.2 µM (inactive)
GI50 (NCI-H23): 39.6 µM (inactive)

COCOc1c(C(OCOC)c2cnc(Sc3ccccc3)n2C)ccc(OC)c1OC (stereo not given)
GI50 (BT-549): > 100 µM (inactive)
GI50 (SW-620): > 100 µM (inactive)
GI50 (SK-OV-3): > 100 µM (inactive)
GI50 (OVCAR-3): > 100 µM (inactive)
GI50 (UACC-257): 63.2 µM (inactive)
GI50 (Hs-578T): 94.4 µM (inactive)
GI50 (SNB-75): 35.3 µM (inactive)
GI50 (HCT-116): > 100 µM (inactive)
GI50 (SK-MEL-28): > 100 µM (inactive)
GI50 (NCI-H522): 90.8 µM (inactive)
GI50 (HCT-15): > 100 µM
GI50 (NCI-H226): 76.7 µM (inactive)
GI50 (NCI/ADR-RES): 94.4 µM (inactive)
GI50 (PC-3): > 100 µM (inactive)
GI50 (A549): > 100 µM (inactive)
GI50 (NCI-H460): > 100 µM (inactive)
GI50 (SNB-19): > 100 µM (inactive)
GI50 (CCRF-CEM): > 100 µM (inactive)
GI50 (SN12C): > 100 µM (inactive)
GI50 (NCI-H23): > 100 µM (inactive)

CC1(CCCO)CCCCCC(C)(CCCO)C1=O (stereo not given)
GI50 (BT-549): > 100 µM (inactive)
GI50 (SW-620): > 100 µM (inactive)
GI50 (SK-OV-3): > 100 µM (inactive)
GI50 (OVCAR-3): > 100 µM (inactive)
GI50 (UACC-257): > 100 µM (inactive)
GI50 (Hs-578T): > 100 µM (inactive)
GI50 (SNB-75): 92.3 µM (inactive)
GI50 (HCT-116): > 100 µM (inactive)
GI50 (SK-MEL-28): > 100 µM (inactive)
GI50 (NCI-H522): > 100 µM (inactive)
GI50 (HCT-15): > 100 µM
GI50 (NCI-H226): > 100 µM (inactive)
GI50 (NCI/ADR-RES): > 100 µM (inactive)
GI50 (PC-3): > 100 µM (inactive)
GI50 (A549): > 100 µM (inactive)
GI50 (NCI-H460): > 100 µM (inactive)
GI50 (SNB-19): > 100 µM (inactive)
GI50 (CCRF-CEM): > 100 µM (inactive)
GI50 (SN12C): > 100 µM (inactive)
GI50 (NCI-H23): > 100 µM (inactive)

CC1(C)C(c2ccccc2)=[N+]([O-])C(C)(C)N1O
GI50 (BT-549): > 10 µM (inactive)
GI50 (SW-620): > 10 µM (inactive)
GI50 (SK-OV-3): > 10 µM (inactive)
GI50 (OVCAR-3): > 10 µM (inactive)
GI50 (UACC-257): > 10 µM (inactive)
GI50 (Hs-578T): > 10 µM (inactive)
GI50 (SNB-75): > 10 µM (inactive)
GI50 (HCT-116): > 10 µM (inactive)
GI50 (SK-MEL-28): > 10 µM (inactive)
GI50 (NCI-H522): > 10 µM (inactive)
GI50 (HCT-15): > 10 µM
GI50 (NCI-H226): > 10 µM (inactive)
GI50 (NCI/ADR-RES): > 10 µM (inactive)
GI50 (PC-3): > 10 µM (inactive)
GI50 (A549): > 10 µM (inactive)
GI50 (NCI-H460): > 10 µM (inactive)
GI50 (SNB-19): > 10 µM (inactive)
GI50 (CCRF-CEM): > 10 µM (inactive)
GI50 (SN12C): > 10 µM (inactive)
GI50 (NCI-H23): > 10 µM (inactive)

Cc1cc2nc(-c3cc(C(C)(C)C)c(O)c(C(C)(C)C)c3)[nH]c2cc1C
GI50 (BT-549): > 100 µM (inactive)
GI50 (SW-620): 1.65 µM (inactive)
GI50 (SK-OV-3): > 100 µM (inactive)
GI50 (OVCAR-3): 11.6 µM (inactive)
GI50 (UACC-257): > 52.2 µM (inactive)
GI50 (Hs-578T): 17.2 µM (inactive)
GI50 (SNB-75): > 100 µM (inactive)
GI50 (HCT-116): 1.79 µM (inactive)
GI50 (SK-MEL-28): > 100 µM (inactive)
GI50 (NCI-H522): > 100 µM (inactive)
GI50 (HCT-15): 6.55 µM
GI50 (NCI-H226): > 100 µM (inactive)
GI50 (NCI/ADR-RES): > 68.7 µM (inactive)
GI50 (PC-3): 7.19 µM (inactive)
GI50 (A549): 2.44 µM (inactive)
GI50 (NCI-H460): 4.47 µM (inactive)
GI50 (SNB-19): 11.6 µM (inactive)
GI50 (CCRF-CEM): 1.39 µM (inactive)
GI50 (SN12C): 9.62 µM (inactive)
GI50 (NCI-H23): > 34 µM (inactive)
